Experiments:
androgen receptor (AR) = target: T1, androgen receptor (AR) (Homo sapiens, UniProt P10275); test: AR antagonist luciferase gene reporter assay (AR plasmid pSVAR0 + MMTV-Luc, DHT at EC80); conditions: for IC50: Antagonist Activity in CV-1 IC50, luciferase reporter in AR-transfected cells, DHT at EC80, 24 h incubation, means ± SD of three independent experiments
T1 sequence (P10275 1-920): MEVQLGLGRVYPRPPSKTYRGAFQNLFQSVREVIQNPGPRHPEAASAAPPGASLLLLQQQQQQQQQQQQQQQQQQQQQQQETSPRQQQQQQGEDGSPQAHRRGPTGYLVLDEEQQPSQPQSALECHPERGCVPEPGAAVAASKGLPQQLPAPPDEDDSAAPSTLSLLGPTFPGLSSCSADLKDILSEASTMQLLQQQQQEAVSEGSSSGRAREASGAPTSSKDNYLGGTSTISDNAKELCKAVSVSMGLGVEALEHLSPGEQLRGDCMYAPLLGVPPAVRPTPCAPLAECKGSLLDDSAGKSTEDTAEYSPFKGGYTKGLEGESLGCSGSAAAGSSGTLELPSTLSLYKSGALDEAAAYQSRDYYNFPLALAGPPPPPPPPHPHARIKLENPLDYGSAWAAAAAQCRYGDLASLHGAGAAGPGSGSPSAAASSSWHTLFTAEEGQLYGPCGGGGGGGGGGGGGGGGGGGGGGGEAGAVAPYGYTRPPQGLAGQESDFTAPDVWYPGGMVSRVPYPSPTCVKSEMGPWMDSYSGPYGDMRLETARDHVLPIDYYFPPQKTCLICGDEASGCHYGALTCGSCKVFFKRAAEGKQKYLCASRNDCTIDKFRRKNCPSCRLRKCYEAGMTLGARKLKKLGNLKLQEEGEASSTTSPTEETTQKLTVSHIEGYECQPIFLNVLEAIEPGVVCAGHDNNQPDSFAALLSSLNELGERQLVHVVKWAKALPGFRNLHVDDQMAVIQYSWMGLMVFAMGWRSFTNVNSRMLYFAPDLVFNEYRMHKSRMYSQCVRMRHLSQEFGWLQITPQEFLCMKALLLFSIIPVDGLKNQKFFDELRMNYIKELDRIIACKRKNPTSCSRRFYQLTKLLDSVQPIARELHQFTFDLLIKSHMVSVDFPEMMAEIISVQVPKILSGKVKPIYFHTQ

For `Cc1ccc(N2C(=S)N(c3ccc(C#N)c(C(F)(F)F)c3)C(=O)C2(C)CO)cc1` (stereo not drawn) [6b, 4-(4-(hydroxymethyl)-4-methyl-5-oxo-2-thioxo-3-(p-tolyl)imidazolidin-1-yl)-2-(trifluoromethyl)benzonitrile], the melting point was 190 to 192 °C, the “Antagonist Activity in CV-1 Efficacy” value (androgen receptor (AR)) was 86 ± 4.2% and the IC50 (androgen receptor (AR)) was 549 ± 47.8 nM.

In the case of `CC1(CO)C(=O)N(c2ccc(C#N)c(C(F)(F)F)c2)C(=S)N1c1ccc(Cl)cc1` (stereo not drawn) [6d, 4-(3-(4-chlorophenyl)-4-(hydroxymethyl)-4-methyl-5-oxo-2-thioxoimidazolidin-1-yl)-2-(trifluoromethyl)benzonitrile], the melting point is reported as 205 to 207 °C, the “Antagonist Activity in CV-1 Efficacy” value (androgen receptor (AR)) is reported as 96 ± 3.8% and the IC50 (androgen receptor (AR)) is reported as 79.3 ± 13.2 nM.

With `CC1(CO)C(=O)N(c2ccc(C#N)c(C(F)(F)F)c2)C(=S)N1c1ccc(Br)cc1` (stereo not drawn) [6e, 4-(3-(4-bromophenyl)-4-(hydroxymethyl)-4-methyl-5-oxo-2-thioxoimidazolidin-1-yl)-2-(trifluoromethyl)benzonitrile] the melting point was 206 to 208 °C, the “Antagonist Activity in CV-1 Efficacy” value (androgen receptor (AR)) was 86 ± 6.5% and the IC50 (androgen receptor (AR)) was 117 ± 16.3 nM.

For `COc1ccc(N2C(=S)N(c3ccc(C#N)c(C(F)(F)F)c3)C(=O)C2(C)CO)cc1` (stereo not drawn) [6f, 4-(4-(hydroxymethyl)-3-(4-methoxyphenyl)-4-methyl-5-oxo-2-thioxoimidazolidin-1-yl)-2-(trifluoromethyl)benzonitrile], the melting point was 183 to 185 °C, the “Antagonist Activity in CV-1 Efficacy” value (androgen receptor (AR)) was 89 ± 3.7% and the IC50 (androgen receptor (AR)) was 286 ± 29.5 nM.

With `CC1(CO)C(=O)N(c2ccc(C#N)c(C(F)(F)F)c2)C(=S)N1c1ccc(C#N)cc1` (stereo not drawn) [6g, 4-(3-(4-cyanophenyl)-4-(hydroxymethyl)-4-methyl-5-oxo-2-thioxoimidazolidin-1-yl)-2-(trifluoromethyl)benzonitrile] the melting point was 234 to 236 °C, the “Antagonist Activity in CV-1 Efficacy” value (androgen receptor (AR)) was 102 ± 15.5% and the IC50 (androgen receptor (AR)) was 338 ± 44.7 nM.

`CC1(CO)C(=O)N(c2ccc(C#N)c(C(F)(F)F)c2)C(=S)N1c1ccc([N+](=O)[O-])cc1` (stereo not drawn) [6h, 4-(4-(hydroxymethyl)-4-methyl-3-(4-nitrophenyl)-5-oxo-2-thioxoimidazolidin-1-yl)-2-(trifluoromethyl)benzonitrile] gave a melting point of 206 to 208 °C and an IC50 (androgen receptor (AR)) of 79600 nM.

With `CC1(CO)C(=O)N(c2ccc(C#N)c(C(F)(F)F)c2)C(=S)N1c1ccc(C(F)(F)F)cc1` (stereo not drawn) [6i, 4-(4-(hydroxymethyl)-4-methyl-5-oxo-2-thioxo-3-(4-(trifluoromethyl)phenyl)imidazolidin-1-yl)-2-(trifluoromethyl)benzonitrile] the melting point was 178 to 180 °C, the “Antagonist Activity in CV-1 Efficacy” value (androgen receptor (AR)) was 102 ± 8.9% and the IC50 (androgen receptor (AR)) was 68.2 ± 4.6 nM.

With `COC(=O)c1ccc(N2C(=S)N(c3ccc(C#N)c(C(F)(F)F)c3)C(=O)C2(C)CO)cc1` (stereo not drawn) [6j, methyl 4-(3-(4-cyano-3-(trifluoromethyl)phenyl)-5-(hydroxymethyl)-5-methyl-4-oxo-2-thioxoimidazolidin-1-yl)benzoate] the melting point was 168 to 170 °C, the “Antagonist Activity in CV-1 Efficacy” value (androgen receptor (AR)) was 95 ± 4.2% and the IC50 (androgen receptor (AR)) was 532 ± 58.2 nM.

In the case of `CNC(=O)c1ccc(N2C(=S)N(c3ccc(C#N)c(C(F)(F)F)c3)C(=O)C2(C)CO)cc1F` (stereo not drawn) [6k, 4-(3-(4-cyano-3-(trifluoromethyl)phenyl)-5-(hydroxymethyl)-5-methyl-4-oxo-2-thioxoimidazolidin-1-yl)-2-fluoro-N-methylbenzamide], the “Antagonist Activity in CV-1 Efficacy” value (androgen receptor (AR)) is reported as 88 ± 3.5% and the IC50 (androgen receptor (AR)) is reported as 126 nM.

With `CN1CCC(Oc2ccc(N3C(=S)N(c4ccc(C#N)c(C(F)(F)F)c4)C(=O)C3(C)CO)cc2)CC1` (stereo not drawn) [6l, 4-(4-(hydroxymethyl)-4-methyl-3-(4-((1-methylpiperidin-4-yl)oxy)phenyl)-5-oxo-2-thioxoimidazolidin-1-yl)-2-(trifluoromethyl)benzonitrile] the melting point was 117 to 119 °C, the “Antagonist Activity in CV-1 Efficacy” value (androgen receptor (AR)) was 92 ± 2.9% and the IC50 (androgen receptor (AR)) was 337 nM.

For `CC1(CO)C(=O)N(c2ccc(C#N)c(C(F)(F)F)c2)C(=O)N1c1ccc(C#N)cc1` (stereo not drawn) [7g, 4-(3-(4-cyanophenyl)-4-(hydroxymethyl)-4-methyl-2,5-dioxoimidazolidin-1-yl)-2-(trifluoromethyl)benzonitrile], the “Antagonist Activity in CV-1 Efficacy” value (androgen receptor (AR)) was 98 ± 11.6% and the IC50 (androgen receptor (AR)) was 61 ± 6.1 nM.

Reference: article PMC9505067, “Synthesis of Hydantoin Androgen Receptor Antagonists and Study on Their Antagonistic Activity” (Molecules, 2022)
